How the values were obtained:
[1] = tested on: brains, heart, liver, muscle, and DRG of the NHPs; test: Maturation of TTM-001 and TTM-002 capsids, NGS enrichment in NHP tissues; type: in vivo; details: relative to AAV9 control
How it was run: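 Variants carry mutations within and flanking the loop IV peptide insert: positions 450–466 were triplet-randomized, while positions 449–466 received low-frequency point mutations. The combined pool went into two NHPs, and each peptide was scored by NGS enrichment ratio against AAV9.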

brain = test: Matured TTM-001 and TTM-002 variants, NGS enrichment in mouse brain; type: in vivo, mice; details: relative to AAV9 control
[2] = NGS fold-enrichment of RNA, NHP brain
[3] = NGS fold-enrichment, NHP liver DNA
[4] = NGS fold-enrichment, NHP liver RNA
[5] = NGS fold-enrichment, NHP muscle
[6] = NGS fold-enrichment, mouse brain
[7] = NGS fold-enrichment of matured AAV capsid variants, NHP brain, RNA
[8] = NGS fold-enrichment, DRG of NHPs
[9] = NGS fold-enrichment, RNA, brain of NHPs
[10] = NGS fold-enrichment, heart of NHPs
[11] = NGS fold-enrichment, liver DNA of NHPs
[12] = NGS fold-enrichment, liver RNA of NHPs
[13] = NGS fold-enrichment, muscle of NHPs
[14] = NGS fold-enrichment, brain of mice

KTEVGHDSPHKSGQNQQT
Fold Enrichment relative to AAV9, Brain (NHP) [1, 2]: 112.457 fold | Fold Enrichment relative to AAV9, DRG (NHP) ([1]; NGS fold-enrichment, NHP DRG): 0.000 fold | Fold Enrichment relative to AAV9, Heart (NHP) ([1]; NGS fold-enrichment, NHP heart): 0.011 fold | Fold Enrichment relative to AAV9, Liver DNA (NHP) [1, 3]: 0.138 fold | Fold Enrichment relative to AAV9, Liver RNA (NHP) [1, 4]: 0.000 fold | Fold Enrichment relative to AAV9, Muscle (NHP) [1, 5]: 0.000 fold | Fold Enrichment relative to AAV9, Brain (Mouse) (brain; [6]): 13.125 fold

KTEVTSGSPHSKAQNQQT
Fold Enrichment relative to AAV9, Brain (NHP) [1, 7]: 54.663 fold | Fold Enrichment relative to AAV9, DRG (NHP) ([1]; NHP DRG): 0.000 fold | Fold Enrichment relative to AAV9, Heart (NHP) ([1]; NHP heart): 0.000 fold | Fold Enrichment relative to AAV9, Liver DNA (NHP) ([1]; NHP liver, DNA): 0.185 fold | Fold Enrichment relative to AAV9, Liver RNA (NHP) ([1]; NHP liver, RNA): 0.323 fold | Fold Enrichment relative to AAV9, Muscle (NHP) ([1]; NHP muscle): 0.000 fold | Fold Enrichment relative to AAV9, Brain (Mouse) (brain; mouse brain): 81.482 fold

KTEYISGSPHSKAQNQQT
Fold Enrichment relative to AAV9, Brain (NHP) [1, 7]: 57.891 fold | Fold Enrichment relative to AAV9, DRG (NHP) ([1]; NHP DRG): 0.000 fold | Fold Enrichment relative to AAV9, Heart (NHP) ([1]; NHP heart): 0.000 fold | Fold Enrichment relative to AAV9, Liver DNA (NHP) ([1]; NHP liver, DNA): 0.075 fold | Fold Enrichment relative to AAV9, Liver RNA (NHP) ([1]; NHP liver, RNA): 0.076 fold | Fold Enrichment relative to AAV9, Muscle (NHP) ([1]; NHP muscle): 0.000 fold | Fold Enrichment relative to AAV9, Brain (Mouse) (brain; mouse brain): 57.620 fold

KTEYNSGSPHSKAQNQQT
Fold Enrichment relative to AAV9, Brain (NHP) [1, 7]: 50.256 fold | Fold Enrichment relative to AAV9, DRG (NHP) ([1]; NHP DRG): 0.000 fold | Fold Enrichment relative to AAV9, Heart (NHP) ([1]; NHP heart): 0.000 fold | Fold Enrichment relative to AAV9, Liver DNA (NHP) ([1]; NHP liver, DNA): 0.009 fold | Fold Enrichment relative to AAV9, Liver RNA (NHP) ([1]; NHP liver, RNA): 0.000 fold | Fold Enrichment relative to AAV9, Muscle (NHP) ([1]; NHP muscle): 0.000 fold | Fold Enrichment relative to AAV9, Brain (Mouse) (brain; mouse brain): 62.679 fold

KTFHGSGSPHSKTQNQQT
Fold Enrichment relative to AAV9, Brain (NHP) [1, 2]: 94.714 fold | Fold Enrichment relative to AAV9, DRG (NHP) [1, 8]: 0.000 fold | Fold Enrichment relative to AAV9, DRG (NHP) ([1]; NGS fold-enrichment, NHP DRG): 0.000 fold | Fold Enrichment relative to AAV9, Heart (NHP) ([1]; NGS fold-enrichment, NHP heart): 0.210 fold | Fold Enrichment relative to AAV9, Liver DNA (NHP) [1, 3]: 0.000 fold | Fold Enrichment relative to AAV9, Liver RNA (NHP) [1, 4]: 0.000 fold | Fold Enrichment relative to AAV9, Muscle (NHP) [1, 5]: 0.120 fold | Fold Enrichment relative to AAV9, Brain (NHP) [1, 9]: 94.714 fold | Fold Enrichment relative to AAV9, Heart (NHP) [1, 10]: 0.210 fold | Fold Enrichment relative to AAV9, Liver DNA (NHP) [1, 11]: 0.000 fold | Fold Enrichment relative to AAV9, Liver RNA (NHP) [1, 12]: 0.000 fold | Fold Enrichment relative to AAV9, Muscle (NHP) [1, 13]: 0.120 fold | Fold Enrichment relative to AAV9, Brain (Mouse) (brain; [14]): 51.119 fold | Fold Enrichment relative to AAV9, Brain (Mouse) (brain; [6]): 51.119 fold

KTFKGSGSPHSKAPNQQT
Fold Enrichment relative to AAV9, Brain (NHP) [1, 2]: 80.890 fold | Fold Enrichment relative to AAV9, DRG (NHP) [1, 8]: 0.000 fold | Fold Enrichment relative to AAV9, DRG (NHP) ([1]; NGS fold-enrichment, NHP DRG): 0.000 fold | Fold Enrichment relative to AAV9, Heart (NHP) ([1]; NGS fold-enrichment, NHP heart): 0.000 fold | Fold Enrichment relative to AAV9, Liver DNA (NHP) [1, 3]: 0.017 fold | Fold Enrichment relative to AAV9, Liver RNA (NHP) [1, 4]: 0.000 fold | Fold Enrichment relative to AAV9, Muscle (NHP) [1, 5]: 0.000 fold | Fold Enrichment relative to AAV9, Brain (NHP) [1, 9]: 80.890 fold | Fold Enrichment relative to AAV9, Heart (NHP) [1, 10]: 0.000 fold | Fold Enrichment relative to AAV9, Liver DNA (NHP) [1, 11]: 0.017 fold | Fold Enrichment relative to AAV9, Liver RNA (NHP) [1, 12]: 0.000 fold | Fold Enrichment relative to AAV9, Muscle (NHP) [1, 13]: 0.000 fold | Fold Enrichment relative to AAV9, Brain (Mouse) (brain; [14]): 71.144 fold | Fold Enrichment relative to AAV9, Brain (Mouse) (brain; [6]): 71.144 fold

KTFNASGSPHSKAPNQQT
Fold Enrichment relative to AAV9, DRG (NHP) [1, 8]: 0.208 fold | Fold Enrichment relative to AAV9, Brain (NHP) [1, 9]: 65.392 fold | Fold Enrichment relative to AAV9, Heart (NHP) [1, 10]: 0.000 fold | Fold Enrichment relative to AAV9, Liver DNA (NHP) [1, 11]: 0.156 fold | Fold Enrichment relative to AAV9, Liver RNA (NHP) [1, 12]: 0.215 fold | Fold Enrichment relative to AAV9, Muscle (NHP) [1, 13]: 0.000 fold | Fold Enrichment relative to AAV9, Brain (Mouse) (brain; [14]): 66.275 fold

KTFNGGGSPHSKAQYQQT
Fold Enrichment relative to AAV9, Brain (NHP) [1, 7]: 58.609 fold | Fold Enrichment relative to AAV9, DRG (NHP) ([1]; NHP DRG): 0.000 fold | Fold Enrichment relative to AAV9, Heart (NHP) ([1]; NHP heart): 0.000 fold | Fold Enrichment relative to AAV9, Liver DNA (NHP) ([1]; NHP liver, DNA): 0.045 fold | Fold Enrichment relative to AAV9, Liver RNA (NHP) ([1]; NHP liver, RNA): 0.163 fold | Fold Enrichment relative to AAV9, Muscle (NHP) ([1]; NHP muscle): 0.000 fold | Fold Enrichment relative to AAV9, Brain (Mouse) (brain; mouse brain): 72.618 fold

KTFNGSGSPHNKAQNHQT
Fold Enrichment relative to AAV9, DRG (NHP) [1, 8]: 0.000 fold | Fold Enrichment relative to AAV9, Brain (NHP) [1, 9]: 64.060 fold | Fold Enrichment relative to AAV9, Heart (NHP) [1, 10]: 0.000 fold | Fold Enrichment relative to AAV9, Liver DNA (NHP) [1, 11]: 0.317 fold | Fold Enrichment relative to AAV9, Liver RNA (NHP) [1, 12]: 0.094 fold | Fold Enrichment relative to AAV9, Muscle (NHP) [1, 13]: 0.035 fold | Fold Enrichment relative to AAV9, Brain (Mouse) (brain; [14]): 67.757 fold
